Assays:
[1] = tested on: normal primary NK cells, pool 3 (3 donors) (IL-2 2.5 ng/mL); assay: percent inhibition of viability; higher = more inhibition; conditions: 72 h
YT (IL-2 2.5 ng/mL) [2] = assay: as above; conditions: 72 h
IMC-1 (IL-2 20 ng/mL) [3] = assay: as above; conditions: 72 h
SNK-6 (IL-2 2.5 ng/mL) [4] = assay: as above; conditions: 72 h
[5] = tested on: normal primary NK cells, pool 2 (3 donors) (IL-2 2.5 ng/mL); assay: as above; conditions: 72 h
[6] = tested on: normal primary NK cells, pool 1 (3 donors) (IL-2 2.5 ng/mL); assay: as above; conditions: 72 h
KHYG-1 (IL-2 2.5 ng/mL) [7] = assay: as above; conditions: 72 h
DERL-7 (IL-2 2.5 ng/mL) [8] = assay: as above; conditions: 72 h
NK-92 (IL-2 2.5 ng/mL) [9] = assay: as above; conditions: 72 h
[10] = tested on: normal primary NK cells, pool 1 (3 donors), resting (IL-2 0 ng/mL); assay: as above; conditions: 72 h
NK-YS (IL-2 2.5 ng/mL) [11] = assay: as above; conditions: 72 h
KAI3 (IL-2 2.5 ng/mL) [12] = assay: as above; conditions: 72 h
NKL (IL-2 2.5 ng/mL) [13] = assay: as above; conditions: 72 h
[14] = tested on: normal primary NK cells, pool 3 (3 donors) (IL-2 2.5 ng/mL); assay: drug sensitivity score (DSS) (DSS units); higher = more sensitive; extreme values may be limits of the assay; conditions: 72 h
YT (IL-2 2.5 ng/mL) [15] = assay: as above; conditions: 72 h
IMC-1 (IL-2 20 ng/mL) [16] = assay: as above; conditions: 72 h
SNK-6 (IL-2 2.5 ng/mL) [17] = assay: as above; conditions: 72 h
[18] = tested on: normal primary NK cells, pool 2 (3 donors) (IL-2 2.5 ng/mL); assay: as above; conditions: 72 h
[19] = tested on: normal primary NK cells, pool 1 (3 donors) (IL-2 2.5 ng/mL); assay: as above; conditions: 72 h
KHYG-1 (IL-2 2.5 ng/mL) [20] = assay: as above; conditions: 72 h
DERL-7 (IL-2 2.5 ng/mL) [21] = assay: as above; conditions: 72 h
NK-92 (IL-2 2.5 ng/mL) [22] = assay: as above; conditions: 72 h
[23] = tested on: normal primary NK cells, pool 1 (3 donors), resting (IL-2 0 ng/mL); assay: as above; conditions: 72 h
NK-YS (IL-2 2.5 ng/mL) [24] = assay: as above; conditions: 72 h
KAI3 (IL-2 2.5 ng/mL) [25] = assay: as above; conditions: 72 h
NKL (IL-2 2.5 ng/mL) [26] = assay: as above; conditions: 72 h
[27] = tested on: normal NK cells expanded with K562-aAPC; assay: as above; conditions: 72 h; IL-2 2.5 ng/mL
Procedure: (§1)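 Drug sensitivity and resistance testing on K562-aAPC-expanded normal NK cells: 5 concentrations (10-fold steps over a 10,000-fold range), 72 h at 37 °C, viability by CellTiter-Glo normalised to DMSO and benzethonium chloride controls; DSS from the fitted curve.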

[28] = tested on: normal NK cells expanded with K562-aAPC; assay: percent inhibition of viability; higher = more inhibition; conditions: 72 h, IL-2 2.5 ng/mL
Procedure: as §1

CS(=O)(=O)N1CCN(Cc2cc3nc(-c4cccc5[nH]ncc45)nc(N4CCOCC4)c3s2)CC1 [Pictilisib] (max concentration tested 10000 nM)
percent inhibition of viability [%]
Conditions	1 nM	10 nM	100 nM	1000 nM	10000 nM
DERL-7 (IL-2 2.5 ng/mL) [8]	0.8	4.11	16.1	57.5	87.1
IMC-1 (IL-2 20 ng/mL) [3]	-6.08	-5.88	-14.1	-27.2	-37
KAI3 (IL-2 2.5 ng/mL) [12]	-6.58	2.21	8.79	17.4	52.6
KHYG-1 (IL-2 2.5 ng/mL) [7]	-3.48	-3.66	-5.51	9.17	62.5
NK-92 (IL-2 2.5 ng/mL) [9]	4.34	0.31	30.3	36.6	73.9
NK-YS (IL-2 2.5 ng/mL) [11]	0.04	3.57	4.67	27.4	64.3
NKL (IL-2 2.5 ng/mL) [13]	-16	-14.4	-0.35	45.4	73.1
SNK-6 (IL-2 2.5 ng/mL) [4]	9.42	16.7	-3.54	3.83	42
YT (IL-2 2.5 ng/mL) [2]	-3.11	-1.03	5.07	24.7	62
[1]	-9.78	-13.3	-0.72	3.18	37.3
[5]	-12.1	3.86	0.41	8.6	55.1
[6]	-12	-5.63	1.66	32.2	72.9
[10]	-0.3	-14.8	0.53	45.2	63.4
[28]	2.02	0.78	10.8	25.4	51.1

Conditions	drug sensitivity score
DERL-7 (IL-2 2.5 ng/mL) [21]	12.9
IMC-1 (IL-2 20 ng/mL) [16]	0
KAI3 (IL-2 2.5 ng/mL) [25]	4.66
KHYG-1 (IL-2 2.5 ng/mL) [20]	4.95
NK-92 (IL-2 2.5 ng/mL) [22]	11
NK-YS (IL-2 2.5 ng/mL) [24]	6.66
NKL (IL-2 2.5 ng/mL) [26]	9.46
SNK-6 (IL-2 2.5 ng/mL) [17]	2.73
YT (IL-2 2.5 ng/mL) [15]	6.22
[14]	2.3
[18]	4.41
[19]	8.06
[23]	8.8
[27]	5.88

COc1ccc(Cl)c(Nc2nc3ccccc3nc2NS(=O)(=O)c2cccc(NC(=O)C(C)(C)N)c2)c1 [Pilaralisib] (max concentration tested 2500 nM)
percent inhibition of viability [%]
Conditions	0.25 nM	2.5 nM	25 nM	250 nM	2500 nM
DERL-7 (IL-2 2.5 ng/mL) [8]	4.27	-2.64	5.48	2.26	47.2
IMC-1 (IL-2 20 ng/mL) [3]	-10.7	-5.75	-6.19	-0.79	3.28
KAI3 (IL-2 2.5 ng/mL) [12]	-9.17	-2.97	-7.92	0.18	28.9
KHYG-1 (IL-2 2.5 ng/mL) [7]	-8.15	-0.08	-3.78	6.51	17.4
NK-92 (IL-2 2.5 ng/mL) [9]	1.29	7.6	3.1	33.3	47.3
NK-YS (IL-2 2.5 ng/mL) [11]	-9.63	-5.01	-7.74	-2.2	23.1
NKL (IL-2 2.5 ng/mL) [13]	-14.9	-17.9	-13.7	0.37	31.5
SNK-6 (IL-2 2.5 ng/mL) [4]	-25.1	-17.9	-11.5	-18.6	12.9
YT (IL-2 2.5 ng/mL) [2]	-4.96	-1.45	0.38	4.73	42
[1]	-0.55	-0.41	8.73	-3.82	16
[5]	-6.75	-2.47	3.08	7.62	22.6
[6]	-2.73	-2.17	6.91	0.33	11.2
[10]	-1.59	14	8.93	7.44	20.9
[28]	-5.86	-9.89	-4.45	9.09	13

Conditions	drug sensitivity score
DERL-7 (IL-2 2.5 ng/mL) [21]	2.77
IMC-1 (IL-2 20 ng/mL) [16]	0
KAI3 (IL-2 2.5 ng/mL) [25]	1.25
KHYG-1 (IL-2 2.5 ng/mL) [20]	1.04
NK-92 (IL-2 2.5 ng/mL) [22]	6.61
NK-YS (IL-2 2.5 ng/mL) [24]	0.68
NKL (IL-2 2.5 ng/mL) [26]	1.45
SNK-6 (IL-2 2.5 ng/mL) [17]	0.01
YT (IL-2 2.5 ng/mL) [15]	2.91
[14]	0.19
[18]	1.39
[19]	0.02
[23]	1.41
[27]	0.55

O=C(NC[C@H](O)CO)c1ccncc1Nc1ccc(I)cc1F [Pimasertib] (max concentration tested 10000 nM)
percent inhibition of viability [%]
Conditions	1 nM	10 nM	100 nM	1000 nM	10000 nM
DERL-7 (IL-2 2.5 ng/mL) [8]	0.5	14.9	29.4	37.8	49.7
IMC-1 (IL-2 20 ng/mL) [3]	-6.58	-3.26	-9.96	-4.58	5.6
KAI3 (IL-2 2.5 ng/mL) [12]	-9.91	7.15	14.8	26.4	27.1
KHYG-1 (IL-2 2.5 ng/mL) [7]	-2.11	9.27	31.9	59.1	61.3
NK-92 (IL-2 2.5 ng/mL) [9]	6.11	-18.6	-12.1	-18.6	-16.4
NK-YS (IL-2 2.5 ng/mL) [11]	-5.36	-3.17	-0.42	15.1	19.9
NKL (IL-2 2.5 ng/mL) [13]	-5.35	10.9	45.4	63.2	66.3
SNK-6 (IL-2 2.5 ng/mL) [4]	-12.2	-4.53	-21	-22.5	-8.46
YT (IL-2 2.5 ng/mL) [2]	0.32	1.92	-0.1	10.8	10.6
[1]	-8.93	-10.8	-10.3	-6.25	5.59
[5]	-12.9	1.34	0.74	1.01	13.2
[6]	-8.76	5.99	2.83	15.8	22.1
[10]	10.1	-6.83	-15.1	8.84	24.8
[28]	0.25	-8.62	0.85	3.75	18

Conditions	drug sensitivity score
DERL-7 (IL-2 2.5 ng/mL) [21]	11.6
IMC-1 (IL-2 20 ng/mL) [16]	0
KAI3 (IL-2 2.5 ng/mL) [25]	5.63
KHYG-1 (IL-2 2.5 ng/mL) [20]	14.8
NK-92 (IL-2 2.5 ng/mL) [22]	0
NK-YS (IL-2 2.5 ng/mL) [24]	2.03
NKL (IL-2 2.5 ng/mL) [26]	18.1
SNK-6 (IL-2 2.5 ng/mL) [17]	0
YT (IL-2 2.5 ng/mL) [15]	0.17
[14]	0
[18]	0.17
[19]	2.21
[23]	2.06
[27]	0.89
